Activity calls are given as the source filed them. The rule behind the calls is not given here.
Columns and labels:
[1] = target: T1, Replicase polyprotein 1ab (Severe acute respiratory syndrome coronavirus 2, UniProt P0DTD1); test: Inhibition of SARS-CoV-2 PL protease preincubated for 30 mins followed by substrate addition measured after 3 hrs
[2] = (§1) Cytotoxicity against African green monkey Vero E6 cells incubated for 48 hrs by Neutral Red method; format: toxicity, cell-based, Vero C1008; details: chlorocebus sabaeus, Vero E6 cells
[3] = tested on: SARS-CoV-2; test: microbe, parasite or virus in culture; format: functional, organism-based, Vero E6; details: Severe acute respiratory syndrome coronavirus 2, Vero C1008, 24 h
[4] = Metabolic stability in mouse liver microsomes assessed as half life at 1 uM incubated for 60 mins by LC/MS/MS analysis; format: ADME, Microsome; details: for half-life at 1 µM: liver microsomes
[5] = tested on: SARS-CoV-2; test: microbe, parasite or virus in culture; format: functional, organism-based; details: Severe acute respiratory syndrome coronavirus 2, Caco-2, 24 h
[6] = AUClast in C57BL/6J mouse at 50 mg/kg, ip measured 5 hrs by LC/MS/MS analysis; format: ADME, organism-based; details: in vivo
[7] = Cmax in C57BL/6J mouse at 50 mg/kg, ip measured 0.5 hrs by LC/MS/MS analysis; format: ADME, organism-based; details: in vivo
[8] = Cmax in C57BL/6J mouse at 50 mg/kg, po measured 5 hrs by LC/MS/MS analysis; format: ADME, organism-based; details: in vivo
[9] = target: T1, Replicase polyprotein 1ab; test: Inhibition of SARS-CoV-2 PL protease using Ub-AMC as substrate preincubated for 30 mins followed by substrate addition measured for 1 hr
[10] = target: T1, Replicase polyprotein 1ab; test: Inhibition of SARS-CoV-2 PL protease using ISG15-AMC as substrate preincubated for 30 mins followed by substrate addition measured for 1 hr
[11] = target: Ubiquitin carboxyl-terminal hydrolase 7 (Homo sapiens) (UniProt Q93009); test: Inhibition of N-terminal polyhis/GST-tagged full-length human USP7 (1 to 1102 residues) expressed in baculovirus infected insect cells using Ub-AMC as substrate upto 100 uM; details: Insect cell
[12] = target: Ubiquitin carboxyl-terminal hydrolase 14 (Homo sapiens) (UniProt P54578); test: Inhibition of N-terminal 6His-tagged recombinant human USP14 (91 to 494 residues) expressed in Escherichia coli using Ub-AMC as substrate upto 100 uM
[13] = tested on: SARS-CoV-2; test: Antiviral activity against wild-type SARS-CoV-2 WA1 infected in human Caco-2 cells expressing hTMPRSS/hACE2 incubated for 48 hrs in presence of CP-100356 by crystal violet staining based analysis; format: functional, organism-based; details: Severe acute respiratory syndrome coronavirus 2, WA1, Caco-2, 48 h
[14] = tested on: SARS-CoV-2; test: Antiviral activity against SARS-CoV-2 XBB1.16 infected in human Caco-2 cells expressing hTMPRSS/hACE2 incubated for 48 hrs in presence of CP-100356 by crystal violet staining based analysis; format: functional, organism-based; details: Severe acute respiratory syndrome coronavirus 2, XBB1.16, Caco-2, 48 h
[15] = tested on: SARS-CoV-2; test: Antiviral activity against SARS-CoV-2 JN.1 infected in human Caco-2 cells expressing hTMPRSS/hACE2 incubated for 48 hrs in presence of CP-100356 by crystal violet staining based analysis; format: functional, organism-based; details: Severe acute respiratory syndrome coronavirus 2, JN.1, Caco-2, 48 h
[16] = tested on: SARS-CoV-2; test: Selectivity ratio of EC50 for SARS-CoV-2 XBB1.16 infected in human Caco-2 cells expressing hTMPRSS/hACE2 to EC50 for wild-type SARS-CoV-2 WA1 infected in human Caco-2 cells expressing hTMPRSS/hACE2; format: functional
[17] = tested on: SARS-CoV-2; test: Selectivity ratio of EC50 for SARS-CoV-2 JN.1 infected in human Caco-2 cells expressing hTMPRSS/hACE2 to EC50 for wild-type SARS-CoV-2 WA1 infected in human Caco-2 cells expressing hTMPRSS/hACE2; format: functional
[18] = tested on: Vero C1008; test: as §1; format: toxicity, cell-based; details: chlorocebus sabaeus, vero c1008, 48 h

Sequence of Ubiquitin carboxyl-terminal hydrolase 7 (Homo sapiens) (Q93009 whole entry, looked up, the tested form may be a part): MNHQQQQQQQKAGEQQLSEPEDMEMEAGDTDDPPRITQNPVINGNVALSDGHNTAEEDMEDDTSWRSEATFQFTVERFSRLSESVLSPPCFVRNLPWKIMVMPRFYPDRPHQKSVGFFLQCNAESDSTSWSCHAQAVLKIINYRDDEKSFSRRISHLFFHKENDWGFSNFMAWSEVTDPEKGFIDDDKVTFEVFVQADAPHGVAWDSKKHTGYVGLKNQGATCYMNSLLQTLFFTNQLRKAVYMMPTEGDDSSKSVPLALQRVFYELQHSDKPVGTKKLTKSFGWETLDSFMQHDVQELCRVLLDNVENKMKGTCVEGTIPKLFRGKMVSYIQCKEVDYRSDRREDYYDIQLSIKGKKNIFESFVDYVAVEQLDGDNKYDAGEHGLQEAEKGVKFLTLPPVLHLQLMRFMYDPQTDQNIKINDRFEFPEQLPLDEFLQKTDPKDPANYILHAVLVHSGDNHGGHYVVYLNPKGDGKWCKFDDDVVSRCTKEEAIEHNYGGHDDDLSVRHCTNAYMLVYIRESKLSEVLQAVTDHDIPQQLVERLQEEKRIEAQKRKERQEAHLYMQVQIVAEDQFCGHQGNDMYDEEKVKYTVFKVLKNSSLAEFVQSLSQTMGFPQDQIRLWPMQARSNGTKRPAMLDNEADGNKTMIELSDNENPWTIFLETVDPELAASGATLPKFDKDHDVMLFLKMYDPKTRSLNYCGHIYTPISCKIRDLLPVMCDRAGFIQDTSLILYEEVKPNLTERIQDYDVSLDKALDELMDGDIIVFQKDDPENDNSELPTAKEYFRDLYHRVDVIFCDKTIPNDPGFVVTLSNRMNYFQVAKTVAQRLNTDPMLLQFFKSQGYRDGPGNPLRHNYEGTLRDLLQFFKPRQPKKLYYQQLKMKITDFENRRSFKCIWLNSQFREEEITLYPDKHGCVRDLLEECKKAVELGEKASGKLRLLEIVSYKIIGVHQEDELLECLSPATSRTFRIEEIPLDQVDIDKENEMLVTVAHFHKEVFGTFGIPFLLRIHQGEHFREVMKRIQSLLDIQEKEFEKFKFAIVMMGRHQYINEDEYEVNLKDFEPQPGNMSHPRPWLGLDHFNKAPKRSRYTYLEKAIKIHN
Sequence of Ubiquitin carboxyl-terminal hydrolase 14 (Homo sapiens) (P54578 whole entry, the tested form may be a part): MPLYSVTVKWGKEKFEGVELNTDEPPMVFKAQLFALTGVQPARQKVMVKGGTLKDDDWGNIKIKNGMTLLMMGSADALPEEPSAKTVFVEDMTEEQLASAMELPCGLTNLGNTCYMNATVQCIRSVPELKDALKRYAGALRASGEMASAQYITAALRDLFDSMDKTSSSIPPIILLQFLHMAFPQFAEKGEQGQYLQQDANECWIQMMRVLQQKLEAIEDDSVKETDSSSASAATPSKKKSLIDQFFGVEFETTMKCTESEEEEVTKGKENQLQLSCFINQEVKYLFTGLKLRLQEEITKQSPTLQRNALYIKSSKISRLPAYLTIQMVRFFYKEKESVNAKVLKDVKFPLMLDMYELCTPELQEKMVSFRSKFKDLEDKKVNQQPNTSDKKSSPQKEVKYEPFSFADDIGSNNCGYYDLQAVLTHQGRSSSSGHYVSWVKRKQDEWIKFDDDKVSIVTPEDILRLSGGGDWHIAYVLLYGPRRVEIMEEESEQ

Compound	IC50 [1]	CC50 at 48 h [2]	also measured
CCn1ccc(-c2cc(-c3cnn(C)c3)cc([C@@H](C)NC(=O)c3ccccc3CCC(=O)NNC(=O)/C=C/C(=O)N3CC(C(F)(F)F)C3)c2)n1	100 nM	–	–
CCn1ccc(-c2cc(-c3cnn(C)c3)cc([C@@H](C)NC(=O)c3ccccc3CCC(=O)NNC(=O)/C=C/C(=O)N(C)C)c2)n1	700 nM	> 250000 nM	–
CCn1ccc(-c2cc(-c3cnn(C)c3)cc([C@@H](C)NC(=O)c3ccccc3CCC(=O)NCCC#N)c2)n1	> 10000 nM	146000 nM	–
CCn1ccc(-c2cc(-c3cnn(C)c3)cc([C@@H](C)NC(=O)c3ccccc3CCC(=O)NNC(=O)/C=C/C(=O)NC3CC3)c2)n1	200 nM	> 250000 nM	EC50 [3]: 5200 nM; half-life at 1 µM [4]: > 2.42 h
CCn1ccc(-c2cc(-c3cnn(C)c3)cc(C3(NC(=O)c4ccccc4CNC(=O)CNC(=O)/C=C/C(=O)N4CC(F)(F)C4)CC3)c2)n1	1600 nM	> 250000 nM	–
C#CCNC(=O)CCc1ccccc1C(=O)N[C@H](C)c1cc(-c2cnn(C)c2)cc(-c2ccn(CC)n2)c1	5000 nM	256000 nM	–
CCn1ccc(-c2cc(-c3cnn(C)c3)cc([C@@H](C)NC(=O)c3ccccc3CCC(=O)NNC(C)=O)c2)n1	–	> 250000 nM	–
CCn1ccc(-c2cc(-c3cnn(C)c3)cc([C@@H](C)NC(=O)c3ccccc3CNC(=O)CNC(=O)/C=C/C(=O)N3CC(F)(F)C3)c2)n1	500 nM	> 250000 nM	–
CCOC(=O)/C=C/C(=O)NNC(=O)CCc1ccccc1C(=O)N[C@H](C)c1cc(-c2cnn(C)c2)cc(-c2ccn(CC)n2)c1	100 nM	–	–
CCn1ccc(-c2cc(-c3cnn(C)c3)cc([C@@H](C)NC(=O)c3ccccc3CCC(=O)NNC(=O)/C=C/C(=O)OC(C)(C)C)c2)n1	100 nM	–	EC50 [3]: 99.2 nM
CCn1ccc(-c2cc(-c3cnn(C)c3)cc([C@@H](C)NC(=O)c3cc(OCCN(C)C)ccc3C)c2)n1	–	–	EC50 [5]: 420 nM
CCn1ccc(-c2cc(-c3cnn(C)c3)cc([C@@H](C)NC(=O)c3ccccc3CCC(=O)NNC(=O)/C=C/C(=O)NC3CC(F)(F)C3)c2)n1	200 nM	> 250000 nM	EC50 [3]: 2400 nM; half-life at 1 µM [4]: 1.31 h
CCOC(=O)/C=C/C(=O)NCC(=O)NCc1ccccc1C(=O)NC1(c2cc(-c3cnn(C)c3)cc(-c3ccn(CC)n3)c2)CC1	1100 nM	> 250000 nM	–
CCn1ccc(-c2cc(-c3cnn(C)c3)cc([C@@H](C)NC(=O)c3ccccc3CCC(=O)NNC(=O)/C=C/CN(C)C)c2)n1	> 5000 nM	> 250000 nM	–
C=CC(=O)NNC(=O)CCc1ccccc1C(=O)N[C@H](C)c1cc(-c2cnn(C)c2)cc(-c2ccn(CC)n2)c1	3100 nM	> 250000 nM	–
CCn1ccc(-c2cc(-c3cnn(C)c3)cc([C@@H](C)NC(=O)c3ccccc3CCC(=O)NNC(=O)/C=C/C(=O)N3CC(C)(C)C3)c2)n1	–	> 250000 nM	half-life at 1 µM [4]: 1.4 h; AUClast [6]: 2513 ng·h/mL; Cmax [7]: 995 ng/mL; Cmax [8]: < 10 ng/mL
CCn1ccc(-c2cc(-c3cnn(C)c3)cc([C@@H](C)NC(=O)c3ccccc3CCC(=O)NNC(=O)/C=C/C(=O)NC34CC(C3)C4)c2)n1	100 nM	> 250000 nM	EC50 [3]: 6130 nM
CCn1ccc(-c2cc(-c3cnn(C)c3)cc([C@@H](C)NC(=O)c3ccccc3CCC(=O)NNC(=O)/C=C/C(=O)N3CC(F)(F)C3)c2)n1	100 nM	–	EC50 [3]: 185 nM; Ki [9]: 0.25 nM; Ki [10]: 1.36 nM; inhibition [11]: inactive; inhibition [12]: inactive
CCn1ccc(-c2cc(-c3cnn(C)c3)cc([C@@H](C)NC(=O)c3ccccc3CCC(=O)NCC(=O)CF)c2)n1	–	> 250000 nM	–
CCn1ccc(-c2cc(-c3cnn(C)c3)cc([C@@H](C)NC(=O)c3ccccc3CCC(=O)NNC(=O)/C=C/C(=O)N3CC(F)C3)c2)n1	100 nM	> 250000 nM	EC50 [3]: 935 nM; half-life at 1 µM [4]: 1.3 h
CC(C)(C)[C@H](NC(=O)C(F)(F)F)C(=O)N1C[C@H]2[C@@H]([C@H]1C(=O)N[C@H](C#N)C[C@@H]1CCNC1=O)C2(C)C	–	–	EC50 [13]: 33.9 nM; EC50 [14]: 37.1 nM; EC50 [15]: 96 nM; Ratio EC50 [16]: 1.1; Ratio EC50 [17]: 2.8
CCn1ccc(-c2cc(-c3cnn(C)c3)cc([C@@H](C)NC(=O)c3ccccc3CCC(=O)NNC(=O)/C=C/C(=O)N3CCC3)c2)n1	100 nM	> 250000 nM	EC50 [3]: 3200 nM; t1/2 ([4]; microsomes, 1 h, 1 µM): > 2.42 h; Cmax [8]: < 10 ng/mL
CCn1ccc(-c2cc(-c3cnn(C)c3)cc([C@@H](C)NC(=O)c3ccccc3CCC(=O)NNC(=O)C(Cl)Cl)c2)n1	2200 nM	> 250000 nM	–
CCn1ccc(-c2cc(-c3cnn(C)c3)cc([C@@H](C)NC(=O)c3ccccc3CCC(=O)NNC(=O)CCl)c2)n1	300 nM	–	CC50 [18]: > 250000 nM
C=CS(=O)(=O)NNC(=O)CCc1ccccc1C(=O)N[C@H](C)c1cc(-c2cnn(C)c2)cc(-c2ccn(CC)n2)c1	300 nM	–	CC50 [18]: 31000 nM
CCn1ccc(-c2cc(-c3cnn(C)c3)cc([C@@H](C)NC(=O)c3ccccc3CCC(=O)NNC(=O)C34CC(C3)C4)c2)n1	–	> 250000 nM	–

Reference: ChEMBL document CHEMBL6092219, “Structure-Based Design of Covalent SARS-CoV-2 Papain-like Protease Inhibitors” (J Med Chem, 2024)
